Data on 18 compounds can be found in patent US10654816B2, “Compounds and compositions for treating conditions associated with NLRP activity” (NOVARTIS INFLAMMASOME RESEARCH, INC., priority 2017, dated 2020).

As a reminder, the IC50 is the concentration at which inhibition is half-maximal.

Where two headings read alike, the source gives them in different places. Some results are limits rather than exact numbers.

The experiment has as its system IL-1β production in PMA-differentiated THP-1 cells. Description: IL-1β production in PMA-differentiated THP-1 cells stimulated with gramicidin (hTHP-1 assay, HTRF readout; Procedures 1-3). Format: cell-based, human. The conditions noted are these: average, read-out: hTHP-1 IC50 (Average IC50 of compounds in hTHP-1 assay). The protocol:
The Following Protocol is Suitable for Testing the Activity of the Compounds Disclosed Herein. Procedure 1: IL-1B Production in PMA-Differentiated THP-1 Cells Stimulated with Gramicidin.
THP-1 cells were purchased from the American Type Culture Collection and sub-cultured according to instructions from the supplier. Cells were cultured in complete RPMI 1640 (containing 10% heat inactivated FBS, penicillin (100 units/ml) and streptomycin (100 μg/ml)), and maintained in log phase prior to experimental setup. Prior to the experiment, compounds were dissolved in dimethyl sulfoxide (DMSO) to generate a 30 mM stock. The compound stock was first pre-diluted in DMSO to 3, 0.34, 0.042 and 0.0083 mM intermediate concentrations and subsequently spotted using Echo550 liquid handler into an empty 384-well assay plate to achieve desired final concentration (e.g. 100, 33, 11, 3.7, 1.2, 0.41, 0.14, 0.046, 0.015, 0.0051, 0.0017 μM). DMSO was backfilled in the plate to achieve a final DMSO assay concentration of 0.37%. The plate was then sealed and stored at room temperature until required.
THP-1 cells were treated with PMA (Phorbol 12-myristate 13-acetate) (20 ng/ml) for 16-18 hours. On the day of the experiment the media was removed and adherent cells were detached with trypsin for 5 minutes. Cells were then harvested, washed with complete RPMI 1640, spun down, and resuspended in RPMI 1640 (containing 2% heat inactivated FBS, penicillin (100 units/ml) and streptomycin (100 μg/ml). The cells were plated in the 384-well assay plate containing the spotted compounds at a density of 50,000 cells/well (final assay volume 50 μl). Cells were incubated with compounds for 1 hour and then stimulated with gramicidin (5 μM) (Enzo) for 2 hours. Plates were then centrifuged at 340 g for 5 min. Cell free supernatant (40 μL) was collected using a 96-channel PlateMaster (Gilson) and the production of IL-1β was evaluated by HTRF (cisbio). The plates were incubated for 18 h at 4° C. and read using the preset HTRF program (donor emission at 620 nm, acceptor emission at 668 nm) of the SpectraMax i3x spectrophotometer (Molecular Devices, software SoftMax 6). A vehicle only control and a dose titration of CRID3 (100-0.0017 μM) were run concurrently with each experiment.
Procedure 2: IL-1β Production in PMA-Differentiated THP-1 Cells Stimulated with Gramicidin.
THP-1 cells were purchased from the American Type Culture Collection and sub-cultured according to instructions from the supplier. Prior to experiments, cells were cultured in complete RPMI 1640 (containing 10% heat inactivated FBS, penicillin (100 units/ml) and streptomycin (100 μg/ml)), and maintained in log phase prior to experimental setup. Prior to the experiment THP-1 were treated with PMA (Phorbol 12-myristate 13-acetate) (20 ng/ml) for 16-18 hours. Compounds were dissolved in dimethyl sulfoxide (DMSO) to generate a 30 mM stock.
On the day of the experiment the media was removed and adherent cells were detached with trypsin for 5 minutes. Cells were then harvested, washed with complete RPMI 1640, spun down, resuspended in RPMI 1640 (containing 2% heat inactivated FBS, penicillin (100 units/ml) and streptomycin (100 μg/ml). The cells were plated in a 384-well plate at a density of 50,000 cells/well (final assay volume 50 μl). Compounds were first dissolved in assay medium to obtain a 5× top concentration of 500 μM. 10 step dilutions (1:3) were then undertaken in assay medium containing 1.67% DMSO. 5× compound solutions were added to the culture medium to achieve desired final concentration (e.g. 100, 33, 11, 3.7, 1.2, 0.41, 0.14, 0.046, 0.015, 0.0051, 0.0017 μM). Final DMSO concentration was at 0.37%. Cells were incubated with compounds for 1 hour and then stimulated with gramicidin (5 μM) (Enzo) for 2 hours. Plates were then centrifuged at 340 g for 5 min. Cell free supernatant (40 μL) was collected using a 96-channel PlateMaster (Gilson) and the production of IL-1β was evaluated by HTRF (cisbio). […]
A general note: TR-FRET usually uses a lanthanide donor and a delayed reading to cut background.

The mark [1] stands for this setting: Homo sapiens, THP-1, hTHP-1 assay containing 2% fetal bovine serum, class symbols.
Setting [2] is: Homo sapiens, THP-1, hTHP-1 assay containing 2% fetal bovine serum, given as bound.
The mark [3] stands for this setting: hTHP-1 assay containing 2% fetal bovine serum, class symbols.

On to `CN(C)S(=O)(=NC(=O)Nc1c2c(cc3c1CCC3)CCC2)c1cc(C(C)(C)O)cs1` (single isomer, unassigned) [Example 357, (R) or (S)-N′-((1,2,3,5,6,7-hexahydro-s-indacen-4-yl)carbamoyl)-4-(2-hydroxypropan-2-yl)-N,N-dimethylthiophene-2-sulfonimidamide], for which the IC50 under setting [1] is 5 to 30 µM.
Regarding `CN(C)S(=O)(=NC(=O)Nc1c2c(cc3c1CCC3)CCC2)c1cc(C(C)(C)O)cs1` (single isomer, unassigned) [Example 358, (S) or (R) -N′-((1,2,3,5,6,7-hexahydro-s-indacen-4-yl)carbamoyl)-4-(2-hydroxypropan-2-yl)-N,N-dimethylthiophene-2-sulfonimidamide], under setting [2], the IC50 was greater than 30 µM.
On the same count and under the same terms, then `CC(=O)N(C)Cc1ccc(S(N)(=O)=NC(=O)Nc2c3c(cc4c2CCC4)CCC3)cc1` (single isomer, unassigned) [Example 365, (S) or (R)-N-(4-(N′-((1,2,3,5,6,7-hexahydro-s-indacen-4-yl)carbamoyl)sulfamid-imidoyl)benzyl)-N-methylacetamide], with greater than 30 µM.
For `CC(=O)N(C)Cc1ccc(S(N)(=O)=NC(=O)Nc2c3c(cc4c2CCC4)CCC3)cc1` (single isomer, unassigned) [Example 366, (R) or (S)-N-(4-(N′-((1,2,3,5,6,7-hexahydro-s-indacen-4-yl)carbamoyl)sulfamid-imidoyl)benzyl)-N-methylacetamide], the IC50 under setting [1] fell in the range of 1 to 5 µM.
For the compound `CC(=O)N(C)Cc1cccc(S(N)(=O)=NC(=O)Nc2c3c(cc4c2CCC4)CCC3)c1` (single isomer, unassigned) [Example 367, (S) or (R)-N-(3-(N′-((1,2,3,5,6,7-hexahydro-s-indacen-4-yl)carbamoyl)sulfamid-imidoyl)benzyl)-N-methylacetamide], the IC50 under setting [2] was greater than 30 µM.
As to `CC(=O)N(C)Cc1cccc(S(N)(=O)=NC(=O)Nc2c3c(cc4c2CCC4)CCC3)c1` (single isomer, unassigned) [Example 368, (R) or (S)-N-(3-(N′-((1,2,3,5,6,7-hexahydro-s-indacen-4-yl)carbamoyl)sulfamid-imidoyl)benzyl)-N-methylacetamide], under setting [1], the IC50 was in the range of 1 to 5 µM.
`CC(C)(O)c1ncc(S(N)(=O)=NC(=O)Nc2c3c(cc4c2C(O)CC4)CCC3)s1` (single isomer, unassigned) [Example 369, (S, R/S) or (R, R/S)-N′-((3-hydroxy-1,2,3,5,6,7-hexahydro-s-indacen-4-yl)carbamoyl)-2-(2-hydroxypropan-2-yl)thiazole-5-sulfonimidamide]: the IC50 under setting [2] is greater than 30 µM.
Take `CC(C)(O)c1ncc(S(N)(=O)=NC(=O)Nc2c3c(cc4c2C(O)CC4)CCC3)s1` (single isomer, unassigned) [Example 370, (R, R/S) or (S, R/S)-N′-((3-hydroxy-1,2,3,5,6,7-hexahydro-s-indacen-4-yl)carbamoyl)-2-(2-hydroxypropan-2-yl)thiazole-5-sulfonimidamide]: the IC50 under setting [1] was 0.2 to 1 µM.
In the case of `COC1CN(Cc2ccc(S(N)(=O)=NC(=O)Nc3c4c(cc5c3CCC5)CCC4)cc2)C1` (single isomer, unassigned) [Example 379, (R) or (S)-N′-((1,2,3,5,6,7-hexahydro-s-indacen-4-yl)carbamoyl)-4-((3-methoxyazetidin-1-yl)methyl)benzene-sulfonimidamide], the IC50 under setting [1] fell in the range of 1 to 5 µM.
In the case of `COC1CN(Cc2ccc(S(N)(=O)=NC(=O)Nc3c4c(cc5c3CCC5)CCC4)cc2)C1` (single isomer, unassigned) [Example 380, (S) or (R)-N′-((1,2,3,5,6,7-hexahydro-s-indacen-4-yl)carbamoyl)-4-((3-methoxyazetidin-1-yl)methyl)benzene-sulfonimidamide], the IC50 under setting [2] was greater than 30 µM.
As for `CNS(=O)(=NC(=O)Nc1c2c(cc3c1CCC3)CCC2)c1ccc(CN(C)C)cc1` (single isomer, unassigned) [Example 383, (R) or (S)-4-((dimethylamino)methyl)-N′-((1,2,3,5,6,7-hexahydro-s-indacen-4-yl)carbamoyl)-N-methylbenzene-sulfonimidamide], the IC50 under setting [2] is greater than 30 µM.
In the case of `CNS(=O)(=NC(=O)Nc1c2c(cc3c1CCC3)CCC2)c1ccc(CN(C)C)cc1` (single isomer, unassigned) [Example 384, (S) or (R)-4-((dimethylamino)methyl)-N′-((1,2,3,5,6,7-hexahydro-s-indacen-4-yl)carbamoyl)-N-methylbenzene-sulfonimidamide], the IC50 (hTHP-1 assay containing 2% fetal bovine serum, given as bound) is greater than 30 µM.
For `COCCN(C)Cc1ccc(S(N)(=O)=NC(=O)Nc2c3c(cc4c2CCC4)CCC3)cc1` (single isomer, unassigned) [Example 389, (S) or (R)-N′-((1,2,3,5,6,7-hexahydro-s-indacen-4-yl)carbamoyl)-4-(((2-methoxyethyl)(meth-yl)amino)methyl)benzene-sulfonimidamide], under setting [2], the IC50 is greater than 30 µM.
For the compound `COCCN(C)Cc1ccc(S(N)(=O)=NC(=O)Nc2c3c(cc4c2CCC4)CCC3)cc1` (single isomer, unassigned) [Example 390, (R) or (S)-N′-((1,2,3,5,6,7-hexahydro-s-indacen-4-yl)carbamoyl)-4-(((2-methoxyethyl)(meth-yl)amino)methyl)benzene-sulfonimidamide], the IC50 under setting [1] was 1 to 5 µM.
For the compound `CC(C)(O)c1ncc(S(N)(=O)=NC(=O)Nc2c3c(cc4c2C(O)CC4)CCC3)s1` (single isomer, unassigned) [Example 391, (R, R) or (R, S) or (S, S) or (S, R)-N′-((3-hydroxy-1,2,3,5,6,7-hexahydro-s-indacen-4-yl)carbamoyl)-2-(2-hydroxypropan-2-yl)thiazole-5-sulfonimidamide], the IC50 under setting [3] lay in the range of 0.2 to 1 µM.
Consider `CC(C)(O)c1ncc(S(N)(=O)=NC(=O)Nc2c3c(cc4c2C(O)CC4)CCC3)s1` (single isomer, unassigned) [Example 392, (R, S) or (R, R) or (S, R) or (S, S)-N′-((3-hydroxy- *1,2,3,5,6,7-hexahydro-s-indacen-4-yl)carbamoyl)-2-(2-hydroxypropan-2-yl)thiazole-5-sulfonimidamide], for which the IC50 under setting [3] was 0.2 to 1 µM.
On to `CN1CCc2cc(S(N)(=O)=NC(=O)Nc3c4c(cc5c3CCC5)CCC4)ccc2C1` (single isomer, unassigned) [Example 395, (R) or (S)-N′-((1,2,3,5,6,7-hexahydro-s-indacen-4-yl)carbamoyl)-2-methyl-1,2,3,4-tetrahydroisoquinoline-6-sulfonimidamide], for which, under setting [1], the IC50 fell in the range of 1 to 5 µM.
As to `CN1CCc2cc(S(N)(=O)=NC(=O)Nc3c4c(cc5c3CCC5)CCC4)ccc2C1` (single isomer, unassigned) [Example 396, (S) or (R)-N′-((1,2,3,5,6,7-hexahydro-s-indacen-4-yl)carbamoyl)-2-methyl-1,2,3,4-tetrahydroisoquinoline-6-sulfonimidamide], the concentration for half-maximal inhibition (IC50) under setting [2] was greater than 30 µM.
